Like-named read-outs stand apart in the source and are kept apart here. Values belong to the compound of their own block, whether it stands above or below them. Positions of bridges follow the written chain, without caps; N, C: chain ends. Residues, ends and D or L forms follow the SMILES beside them.
Experiments:
human IgG1 = target: T1, human IgG1 (Homo sapiens, UniProt P01857); format: binding; conditions: Table 13
T1 construct: all human subtypes derived from myeloma patients; purchased Calbiochem 400120; host or cells: myeloma patients
Description: (§1) In addition, the following targets, all unfractionated IgGs, were also evaluated with selected immobilized peptides for species specificity characterization in a similar format: human IgG, goat IgG, bovine IgG, and mouse IgG (Sigma, product nos. I4506, I5256, I5506, and I15381, respectively). In addition, 10 μl aliquots of hydrolyzed NHS-activated Sepharose 4 Fast Flow (Amersham Pharmacia Biotech, product no. 17-0906-01) and immobilized recombinant Protein A (RepliGen Corp., product no. IPA-400) were also assayed as negative and positive controls. IgG targets were diluted into 10 mM phosphate buffer containing 150 mM NaCl and 0.01% Tween 20, pH 7.2 (PBST) or 50 mM Tris buffer containing, 150 mM NaCl and 0.01% Tween-20, pH 7.5 (TBST). Batch (static) binding and elution studies were conducted in a 96-well assay filterplate (Millipore MultiScreen-HV, with 0.45 μm Durapore membrane, product no. MAHVN4510). The target was allowed to incubate with the resin for 1-1.5 hours with shaking at room temperature. Unbound target was collected by centrifugation of samples from the assay plate directly into a low-UV absorbing 96-well collection plate (Costar, product no. 3635 or Greiner, product no. 655801). The unbound target was then quantitated by reading the absorbance at 280 nm (normalized to 1 cm pathlength, 1.4 mg/ml A280 extinction coefficient) of the collection plate on a microplate spectrophotometer (Molecular Devices Corp., SPECTRAmax PLUS) against a buffer blank.
(§2) The percentage bound target was determined by subtracting the mass determined as unbound from the corresponding condition's control values (control non-filtered added directly to the collection plate and/or the negative control). The assay plate was washed (3×) with 200 μl of binding buffer by vacuum filtration followed by addition of 100 μl of various elution conditions (e.g.: 0.1 M sodium bicarbonate buffer, pH 8.5 and/or 0.1 M sodium citrate buffer, pH 4.0). After a 30-60 minute incubation with shaking at room temperature, the eluted target was collected by centrifugation of the assay plate into another collection plate and quantitated in a similar manner. Percent elution of total load was then determined to characterize elution recovery efficiency under various conditions. The assay plate was then washed (3×) with 200 μl of binding buffer by vacuum filtration followed by addition of a resin cleaning condition (e.g., 0.1M CAPS buffer (3-[Cyclohexylamino]-1-propane-sulfonic acid), pH 11.5, to regenerate the resin for re-use. Percentage mass balance determination was calculated to be 90-100% on average.

human IgG2 = target: T2, human IgG2 (Homo sapiens, UniProt P01859); format: binding; conditions: Table 13
T2 construct: all human subtypes derived from myeloma patients; purchased Calbiochem 400122; host or cells: myeloma patients
Description: as §1, §2

human IgG = format: binding; conditions: Table 14; average ligand density 1.8 μM/ml
Description: as §1, §2

mouse IgG = format: binding; conditions: Table 14; average ligand density 1.8 μM/ml
Description: as §1, §2

IgG4 = IgG4 (Homo sapiens, UniProt P01861); format: binding; set-up: all human subtypes derived from myeloma patients; purchased Calbiochem 400126; host or cells: myeloma patients; conditions: Table 13
Description: as §1, §2

human plasma IgG1 = target: T3, human plasma IgG1 (Homo sapiens, UniProt P01857); assay: Fluorescence anisotropy binding, Oregon Green labeled peptide
T3 construct: the individual human plasma IgG isoforms: IgG1, IgG2, IgG3, or IgG4; purchased Calbiochem; host or cells: human plasma
Description: (§3) Peptides were synthesized by BACHEM and then Oregon Green labeled and HPLC purified. Binding studies were performed using human plasma IgG isoforms: IgG1, IgG2, IgG3, and IgG4, obtained from Calbiochem.
(§4) Binding studies were carried out at either pH 4.0, 7.5, or 9.5, with or without salt in the following buffers:
(§5) 2) 10 mM Sodium Citrate, 500 mM Sodium Chloride, 0.01% Tween 20, pH 4.0;
(§6) 4) […], 500 mM Sodium Chloride, 0.01% Tween 20, pH 7.5;
(§7) 5) 10 mM Sodium Bicarbonate, 0.01% Tween 20, pH 9.5;
(§8) 6) 10 mM Sodium Bicarbonate, 500 mM Sodium Chloride, 0.01% Tween 20, pH 9.5; or […]

human plasma IgG2 = target: T4, human plasma IgG2 (Homo sapiens, UniProt P01859); assay: as above
T4 construct: the individual human plasma IgG isoforms: IgG1, IgG2, IgG3, or IgG4; purchased Calbiochem; host or cells: human plasma
Description: as §3, §4, §5, §6, §7, §8

human plasma IgG3 = target: T5, human plasma IgG3 (Homo sapiens, UniProt P01860); assay: as above
T5 construct: the individual human plasma IgG isoforms: IgG1, IgG2, IgG3, or IgG4; purchased Calbiochem; host or cells: human plasma
Description: as §3, §4, §5, §6, §7, §8

human plasma IgG4 = target: T6, human plasma IgG4 (Homo sapiens, UniProt P01861); assay: as above
T6 construct: the individual human plasma IgG isoforms: IgG1, IgG2, IgG3, or IgG4; purchased Calbiochem; host or cells: human plasma
Description: as §3, §4, §5, §6, §7, §8

T5 sequence (P01860 1-377 isoform P01860-1): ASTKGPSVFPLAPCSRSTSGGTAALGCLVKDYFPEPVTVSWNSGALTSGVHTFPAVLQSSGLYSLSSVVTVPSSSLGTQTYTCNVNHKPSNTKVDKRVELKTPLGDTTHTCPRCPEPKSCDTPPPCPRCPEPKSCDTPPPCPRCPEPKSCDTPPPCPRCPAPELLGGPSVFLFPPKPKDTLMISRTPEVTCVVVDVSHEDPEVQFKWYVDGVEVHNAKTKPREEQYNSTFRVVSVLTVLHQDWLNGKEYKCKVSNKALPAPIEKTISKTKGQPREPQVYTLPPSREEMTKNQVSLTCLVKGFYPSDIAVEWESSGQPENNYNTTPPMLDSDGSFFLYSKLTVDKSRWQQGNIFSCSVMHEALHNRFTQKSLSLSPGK
T6 sequence (P01861 1-327 isoform P01861-1): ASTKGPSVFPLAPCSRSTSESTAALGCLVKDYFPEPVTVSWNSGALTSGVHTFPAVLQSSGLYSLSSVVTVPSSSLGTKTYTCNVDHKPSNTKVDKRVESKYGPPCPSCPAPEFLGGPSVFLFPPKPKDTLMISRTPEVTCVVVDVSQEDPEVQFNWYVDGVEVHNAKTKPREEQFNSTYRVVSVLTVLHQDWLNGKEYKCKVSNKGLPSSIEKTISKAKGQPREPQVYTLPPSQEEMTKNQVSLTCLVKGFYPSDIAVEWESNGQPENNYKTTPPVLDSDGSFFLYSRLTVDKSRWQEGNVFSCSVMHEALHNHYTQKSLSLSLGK
IgG4, sequence (P01861 1-327 isoform P01861-1): as above
T2 sequence (P01859 1-326 isoform P01859-1): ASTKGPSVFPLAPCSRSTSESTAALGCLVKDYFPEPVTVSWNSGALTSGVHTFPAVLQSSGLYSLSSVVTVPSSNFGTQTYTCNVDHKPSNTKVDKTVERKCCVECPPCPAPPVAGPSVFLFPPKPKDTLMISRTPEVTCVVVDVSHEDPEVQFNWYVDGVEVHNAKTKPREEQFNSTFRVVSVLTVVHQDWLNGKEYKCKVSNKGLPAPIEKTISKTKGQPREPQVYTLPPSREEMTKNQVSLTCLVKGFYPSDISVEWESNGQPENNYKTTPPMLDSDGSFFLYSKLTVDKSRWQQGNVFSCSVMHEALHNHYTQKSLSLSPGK
T4 sequence (P01859 1-326 isoform P01859-1): as above
T3 sequence (P01857 1-330 isoform P01857-1): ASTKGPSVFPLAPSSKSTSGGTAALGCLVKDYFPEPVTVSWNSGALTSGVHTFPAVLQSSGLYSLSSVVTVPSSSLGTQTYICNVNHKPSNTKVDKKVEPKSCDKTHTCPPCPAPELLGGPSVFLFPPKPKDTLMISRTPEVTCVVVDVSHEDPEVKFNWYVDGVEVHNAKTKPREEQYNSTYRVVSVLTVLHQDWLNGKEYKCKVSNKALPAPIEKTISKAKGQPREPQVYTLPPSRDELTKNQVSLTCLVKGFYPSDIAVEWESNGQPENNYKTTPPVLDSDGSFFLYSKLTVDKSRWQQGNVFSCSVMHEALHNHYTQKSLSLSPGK
T1 sequence (P01857 1-330 isoform P01857-1): as above

hIgG1 elution pH 2.5 (% of Total Load) (human IgG1): 76%
hIgG1 elution pH 3.5 (% of Total Load) (human IgG1): 81%
hIgG1 elution pH 4.5 (% of Total Load) (human IgG1): 39%
hIgG1 elution pH 5.5 (% of Total Load) (human IgG1): 1%
hIgG1 elution pH 9.0 (% of Total Load) (human IgG1): 52%
hIgG1 elution pH 9.5 (% of Total Load) (human IgG1): 57%
hIgG2 elution pH 2.5 (% of Total Load) (human IgG2): 82%
hIgG2 elution pH 3.5 (% of Total Load) (human IgG2): 80%
hIgG2 elution pH 4.5 (% of Total Load) (human IgG2): 38%
hIgG2 elution pH 5.5 (% of Total Load) (human IgG2): 1%
hIgG2 elution pH 9.0 (% of Total Load) (human IgG2): 51%
hIgG2 elution pH 9.5 (% of Total Load) (human IgG2): 60%
% IgG Capture - Batch Binding, Human IgG (human IgG): 77%
% IgG Capture - Batch Binding, Mouse IgG (mouse IgG): 3%
hIgG4 elution pH 2.5 (% of Total Load) (IgG4): 50%
hIgG4 elution pH 3.5 (% of Total Load) (IgG4): 62%
hIgG4 elution pH 4.5 (% of Total Load) (IgG4): 13%
hIgG4 elution pH 5.5 (% of Total Load) (IgG4): 3%
hIgG4 elution pH 9.0 (% of Total Load) (IgG4): 56%
hIgG4 elution pH 9.5 (% of Total Load) (IgG4): 67%
Compound: Ac-GDSWNCAFHHNEMVWCDDGGTPGPEGGGK-NH2 (not fully specified (bridges); printed as Ac-GDSWNCAFHHNEMVWCDDGGTPGPEGGGK-NH2; cysteine pairing not given here) [DX597]

Kd (human plasma IgG1; 10 nM Tris-HCl, 500 mM Sodium Chloride, pH 7.5, read-out: KD (μM) IgG1 pH 7.5 + salt): > 10 µM
Kd (human plasma IgG1; 10 mM Sodium Bicarbonate, 500 mM Sodium Chloride, pH 9.5, read-out: KD (μM) IgG1 pH 9.5 + salt): > 10 µM
Kd (human plasma IgG1; 10 mM Sodium Bicarbonate, pH 9.5, read-out: KD (μM) IgG1 pH 9.5 − salt): > 10 µM
Kd (human plasma IgG1; 10 mM Sodium Citrate, 500 mM Sodium Chloride, pH 4.0, read-out: KD (μM) IgG1 pH 4.0 + salt): > 10 µM
Kd (human plasma IgG1; 10 mM Sodium Citrate, pH 4.0, read-out: KD (μM) IgG1 pH 4.0 − salt): > 10 µM
Kd (human plasma IgG1; 10 mM Tris-HCl, pH 7.5, read-out: KD (μM) IgG1 pH 7.5 − salt): > 10 µM
Kd (human plasma IgG2; 10 nM Tris-HCl, 500 mM Sodium Chloride, pH 7.5, read-out: KD (μM) IgG2 pH 7.5 + salt): > 10 µM
Kd (human plasma IgG2; 10 mM Sodium Bicarbonate, 500 mM Sodium Chloride, pH 9.5, read-out: KD (μM) IgG2 pH 9.5 + salt): > 10 µM
Kd (human plasma IgG2; 10 mM Sodium Bicarbonate, pH 9.5, read-out: KD (μM) IgG2 pH 9.5 − salt): > 10 µM
Kd (human plasma IgG2; 10 mM Sodium Citrate, 500 mM Sodium Chloride, pH 4.0, read-out: KD (μM) IgG2 pH 4.0 + salt): > 10 µM
Kd (human plasma IgG2; 10 mM Sodium Citrate, pH 4.0, read-out: KD (μM) IgG2 pH 4.0 − salt): > 10 µM
Kd (human plasma IgG2; 10 mM Tris-HCl, pH 7.5, read-out: KD (μM) IgG2 pH 7.5 − salt): > 10 µM
Kd (human plasma IgG3; 10 nM Tris-HCl, 500 mM Sodium Chloride, pH 7.5, read-out: KD (μM) IgG3 pH 7.5 + salt): > 10 µM
Kd (human plasma IgG3; 10 mM Sodium Bicarbonate, 500 mM Sodium Chloride, pH 9.5, read-out: KD (μM) IgG3 pH 9.5 + salt): > 10 µM
Kd (human plasma IgG3; 10 mM Sodium Bicarbonate, pH 9.5, read-out: KD (μM) IgG3 pH 9.5 − salt): > 10 µM
Kd (human plasma IgG3; 10 mM Sodium Citrate, 500 mM Sodium Chloride, pH 4.0, read-out: KD (μM) IgG3 pH 4.0 + salt): ~1 µM
Kd (human plasma IgG3; 10 mM Sodium Citrate, pH 4.0, read-out: KD (μM) IgG3 pH 4.0 − salt): ~1 µM
Kd (human plasma IgG3; 10 mM Tris-HCl, pH 7.5, read-out: KD (μM) IgG3 pH 7.5 − salt): > 10 µM
Kd (human plasma IgG4; 10 nM Tris-HCl, 500 mM Sodium Chloride, pH 7.5, read-out: KD (μM) IgG4 pH 7.5 + salt): > 10 µM
Kd (human plasma IgG4; 10 mM Sodium Bicarbonate, 500 mM Sodium Chloride, pH 9.5, read-out: KD (μM) IgG4 pH 9.5 + salt): > 10 µM
Kd (human plasma IgG4; 10 mM Sodium Bicarbonate, pH 9.5, read-out: KD (μM) IgG4 pH 9.5 − salt): > 10 µM
Kd (human plasma IgG4; 10 mM Sodium Citrate, 500 mM Sodium Chloride, pH 4.0, read-out: KD (μM) IgG4 pH 4.0 + salt): > 10 µM
Kd (human plasma IgG4; 10 mM Sodium Citrate, pH 4.0, read-out: KD (μM) IgG4 pH 4.0 − salt): > 10 µM
Kd (human plasma IgG4; 10 mM Tris-HCl, pH 7.5, read-out: KD (μM) IgG4 pH 7.5 − salt): > 10 µM
Compound: CC(=O)N[C@@H](C)C(=O)NCC(=O)N[C@@H](Cc1ccc(O)cc1)C(=O)N[C@@H](Cc1c[nH]c2ccccc12)C(=O)N[C@@H](Cc1ccc(O)cc1)C(=O)N[C@H]1CSSC[C@@H](C(=O)N2CCC[C@H]2C(=O)N[C@@H](CC(C)C)C(=O)N[C@@H](Cc2ccc(O)cc2)C(=O)N2CCC[C@H]2C(=O)NCC(=O)N2CCC[C@H]2C(=O)N[C@@H](CCC(=O)O)C(=O)NCC(=O)NCC(=O)NCC(=O)N[C@@H](CCCCN)C(N)=O)NC(=O)[C@H](CCC(=O)O)NC(=O)[C@@H]2CCCN2C(=O)[C@H](CCCNC(=N)N)NC(=O)[C@H](CC(=O)O)NC(=O)[C@@H]2CCCN2C(=O)[C@H](Cc2ccccc2)NC(=O)[C@H](Cc2c[nH]c3ccccc23)NC1=O [DX413] (Ac-AGYWYCWFPDRPECPLYPGPEGGGK-NH2; disulfide 6-14 (inferred))
